Test results published in patent US20190225650A1, “PEPTIDOMIMETIC MACROCYCLES AND USE THEREOF IN REGULATING HIF1ALPHA” (AILERON THERAPEUTICS, INC., priority 2013, published 2019).
Bridge positions count the residues as written; N and C are the ends. Square brackets hold non-standard residues; d marks the D form. Peptide text beside a SMILES is read from it. R8 = C=CCCCCCC[C@@](C)(N)C(=O)O; S5 = C=CCCC[C@](C)(N)C(=O)O; Nle = CCCC[C@H](N)C(=O)O

Legend:
[1] = target: T1, flag-tagged HIF1α (AA 786-826) / His6-tagged p300 (AA 323-423) complex (Homo sapiens, UniProt Q09472); assay: HIF1α p300 displacement assay (TR FRET, +CHAPS); assay type: binding; conditions: read-out: IC50 (nM) (HIF1α_p300 Displacement + CHAPS)
T1 construct: His6-tagged p300 (AA 323-423); made in house; host or cells: E. coli (pETDuet vector)
Outline: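 The co-expressed flag-HIF1α (786-826)/His6-p300 (323-423) complex, purified from E. coli with 0.1 mM ZnSO4, was used at 300 nM final with competitor peptides for 1 h at room temperature. Buffer was 150 mM NaCl, 20 mM HEPES pH 7.4, 7.5 mM CHAPS and 1 mM DTT. Anti-Flag-K (0.5 μM) and anti-His-D2 (4 nM) were then added for 2 h, and IC50s were fitted from the TR-FRET ratio.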

HRE-bla ME-180 cells [2] = assay: Reporter gene assay (HRE-bla ME-180 HIF reporter, GeneBLAzer); assay type: cell-based, human; conditions: for EC50: 24 hour normoxia
Outline: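 A FRET β-lactamase readout of HIF transcription was used. After compound treatment in 0.3% DMSO/media under normoxic conditions, 20 μl of 6× LiveBLAzer-FRET B/G (CCF4-AM) substrate was added. Plates sat 3 hr at room temperature in the dark and were read at 409 Ex/460Em and 409Ex/530Em on a Synergy 2. Inhibition was compared against DMSO vehicle controls, with chetomin as positive control.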

HRE-bla ME-180 cells [3] = assay: Cell proliferation assay (viability, MTT, 1% FBS); assay type: cell-based, human
Outline: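 ME-180 cells (2×10^4/well) in Opti-MEM with 1% FBS were pretreated 16 h under normoxia (21% O2), vehicle 0.5% DMSO final. Incubation then continued under normoxia or hypoxia (1% O2); viable cells quantified by MTT-type CellTiter 96 assay.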

In the case of `CCCC[C@H](NC(=O)[C@H](CCC(=O)O)NC(=O)[C@]1(C)CCCC=CCCCCCC[C@@](C)(NC(=O)[C@H](CCC(=O)O)NC(=O)[C@H](CC(=O)O)NC(=O)[C@@H](NC(=O)[C@H](CC(N)=O)NC(=O)[C@@H](NC(=O)[C@H](CCC(N)=O)NC(=O)[C@H](CC(=O)O)NC(=O)[C@H](CC(C)C)NC(=O)[C@H](C)NC(=O)[C@H](CCCNC(=N)N)NC(=O)[C@]2(C)CCCC=CCCC[C@](C)(NC(=O)[C@H](CCC(N)=O)NC(=O)[C@H](CC(C)C)NC(=O)[C@H](CC(C)C)NC(C)=O)C(=O)N[C@@H](CCC(=O)O)C(=O)N[C@@H](CCC(=O)O)C(=O)N[C@@H](CC(C)C)C(=O)N2)C(C)C)[C@@H](C)CC)C(=O)N[C@@H](C(C)C)C(=O)N[C@@H](CC(C)C)C(=O)N[C@@H](CCCC)C(=O)N[C@@H](CO)C(=O)N[C@@H](CC(C)C)C(=O)N[C@@H](C(C)C)C(=O)N1)C(=O)NCC(N)=O` [SP-310] (Ac-LLQ[S5]EEL[S5]RALDQVNIDE[R8]VL[Nle]SLV[S5]E[Nle]G-NH2; staple 4-8, 19-26), the IC50 [1] is reported as 400 to 700 nM, the “18 h Avg % max inhibition at top conc (HIF Rptr-24 hrs normoxia) (μM)” value (“18 h Avg % max inhibition at top conc” for short) (HRE-bla ME-180 cells [2]) is reported as “+ (<10: +)” and the EC50 (HRE-bla ME-180 cells [2]) is reported as greater than 30 µM. The “Viability 1% FBS AVG (MTT V3-24 hr Normoxia) (μM)” value (“Viability 1% FBS AVG” for short) (HRE-bla ME-180 cells [3]) was “++++ (≥30: ++++)”.
With `CC[C@H](C)[C@H](NC(=O)[C@H](Cc1ccccc1)NC(C)=O)C(=O)N[C@@H](CC(=O)O)C(=O)N[C@@H](CCC(=O)O)C(=O)N[C@@H](CCC(=O)O)C(=O)N[C@H](C(=O)N[C@@H](CC(C)C)C(=O)N[C@@H](CCSC)C(=O)N[C@@]1(C)CCCC=CCCC[C@@](C)(C(=O)N[C@@H](CCSC)C(=O)N[C@@H](C)C(=O)N[C@@H](Cc2ccccc2)C(N)=O)NC(=O)[C@H]([C@@H](C)CC)NC(=O)[C@H](C(C)C)NC(=O)[C@H](CC(C)C)NC1=O)C(C)C` [SP-226] (Ac-FIDEEVLM[S5]LVI[S5]MAF-NH2; staple 9-13) the IC50 [1] was 400 to 700 nM, the “18 h Avg % max inhibition at top conc” value (HRE-bla ME-180 cells [2]) was “++ (≤10 but <25: ++)” and the EC50 (HRE-bla ME-180 cells [2]) was greater than 30 µM. The “Viability 1% FBS AVG” value (HRE-bla ME-180 cells [3]) was “++++ (≥30: ++++)”.
`CC[C@H](C)[C@H](NC(=O)[C@H](CCCNC(=N)N)NC(=O)[C@H](CC(N)=O)NC(=O)[C@H](CC(C)C)NC(=O)[C@H](C)NC(=O)[C@H](CCSC)NC(=O)[C@]1(C)CCCC=CCCC[C@](C)(NC(=O)[C@H](CCSC)NC(=O)[C@H](CC(C)C)NC(=O)[C@@H](NC(=O)[C@H](C)NC(=O)[C@H](CCC(N)=O)NC(=O)[C@H](CC(N)=O)NC(=O)[C@@H](NC(=O)[C@H](Cc2ccccc2)NC(C)=O)[C@@H](C)CC)C(C)C)C(=O)N[C@@H](CC(C)C)C(=O)N[C@@H](C(C)C)C(=O)N[C@@H]([C@@H](C)CC)C(=O)N1)C(N)=O` [SP-272] (Ac-FINQAVLM[S5]LVI[S5]MALNRI-NH2; staple 9-13) was tested, and the IC50 [1] was greater than 700 nM, the “18 h Avg % max inhibition at top conc” value (HRE-bla ME-180 cells [2]) was “++++ (≥50: ++++)” and the EC50 (HRE-bla ME-180 cells [2]) was no more than 5 µM. For the same compound, the “Viability 1% FBS AVG” value (HRE-bla ME-180 cells [3]) was “++ (≤5 but <15: ++)”.
`CCCC[C@H](NC(=O)[C@H](CCC(=O)O)NC(=O)[C@@H](NC(=O)[C@@H](NC(=O)[C@H](CC(C)C)NC(=O)[C@]1(C)CCCC=CCCC[C@](C)(NC(=O)[C@H](C)NC(=O)[C@H](CC(=O)O)NC(=O)[C@@H](NC(=O)[C@H](Cc2ccccc2)NC(C)=O)[C@@H](C)CC)C(=O)N[C@@H](C(C)C)C(=O)N[C@@H](CC(C)C)C(=O)N[C@@H](CCCC)C(=O)N1)C(C)C)[C@@H](C)CC)C(=O)N[C@@H](C)C(=O)N[C@@H](CC(C)C)C(N)=O` [SP-148] (Ac-FIDA[S5]VL[Nle][S5]LVIE[Nle]AL-NH2; staple 5-9) was tested, and the IC50 [1] was greater than 700 nM, the “18 h Avg % max inhibition at top conc” value (HRE-bla ME-180 cells [2]) was “+++ (≤25 but <50: +++)” and the EC50 (HRE-bla ME-180 cells [2]) was greater than 30 µM. For the same compound, the “Viability 1% FBS AVG” value (HRE-bla ME-180 cells [3]) was “++++ (≥30: ++++)”.
